Reference: patent US9199983B2, “3-aryl-6-aryl-[1,2,4]triazolo[4,3-α]pyridines as inhibitors of cell proliferation and the use thereof” (priority 2010, dated 2015)

Experiments:
[1] = test system: breast cancer cell line T47D; assay: MTT cancer cell cytotoxicity assay, T47D; format: cell-based, human; settings: Homo sapiens, T47D cells, 48-72 h
Method: (§1) Identification of 3-(2-methoxyphenyl)-6-(4-methoxyphenyl)-[1,2,4]triazolo[4,3-a]pyridine and analogs as inhibitors of cell proliferation that were evaluated with standard MTT cancer cell cytotoxicity assay (IC50)
(§2) Human lung cancer cell line A549, breast cancer cell line T47D, liver cancer cell lines HepG2 and SMMC7721 as well as a mouse melanoma cell line B16F10 were used in the study. The cells were cultured in corresponding growth media recommended by American Type Culture Collection (ATCC) with the supplementation of penicillin G (100 U/ml)/streptomycin (100 µg/ml), and 10% fetal bovine serum (Hangzhou Sijiqing Biological Engineering Materials, Co., Ltd. China) at 37° C. in a humidified atmosphere containing 5% CO2. Cells at about 80% confluency were harvested by trypsinization. Cells were centrifuged, re-suspended in fresh growth media and counted. Corresponding numbers of cells were seeded to 96-well cell culture plates (HepG2 cell, T-47D and A549 cells at 3000 cells/well, SMMC-7721 cells at 5000 cells/well and B16F10 cells at 2000 cells/well) in a total volume of […]. Cells were incubated in CO2 incubator over night to allow the cells to attach. In next day, […] of medium containing testing (from 10 μM to 1 nM) or reference compounds was added to each well of the cells. Media without compound were used as 100% control. Cells were treated with each concentration of compounds in triplicates to ensure data accuracy. Cells were incubated with compounds in CO2 incubator for an additional 48-72 h at 37° C. After incubation, cells were removed from the CO2 incubator and […] of 5 mg/ml MTT (3-(4,5-dimethylthiazole-2-yl)-2,5-diphenyltetrazoliumbromide, Sigma) solution in PBS was added to each well. Cells were returned to CO2 incubator and incubated for additional 4 h. After the incubation, media were removed by aspiration and […] DMSO was added to each well. Plates were sealed with aluminum foil and shaked mildly on an orbital shaker for 10 min at room temperature. The absorption was measured at 550 nm with a plate reader (Varioskan Flash, Thermo Fisher Scientific) with 660 nm reading used as background control. The relative absorbance readings were calculated by subtracting readings at 660 nm from that at 550 nm. The relative absorbance was plotted again the concentrations of the testing compounds and the plots were fitted with a one-site lg(IC50) equation using Prism 5 software (GraphPad Software, Inc). The equation used in the curve fitting is as follows: relative absorbance reading=background reading+(maximal reading−brackground reading)/(1+10 ^(compound concentration-log IC50)). The background reading used in the calculation was obtained with 100% cell death using a reference anticancer drug, whereas the maximal reading was obtained in the well with no added compound. The IC50 value calculated from the equation represents the cytotoxic potency of a particular compound.

[2] = test system: liver cancer cell line HepG2; assay: MTT cancer cell cytotoxicity assay, HepG2; format: cell-based, human; settings: Homo sapiens, HepG2 cells, 48-72 h
Method: as §1, §2

[3] = test system: liver cancer cell line SMMC7721; assay: MTT cancer cell cytotoxicity assay, SMMC7721; format: cell-based, human; settings: Homo sapiens, SMMC-7721, SMMC7721 cells, 48-72 h
Method: as §1, §2

[4] = test system: Human lung cancer cell line A549; assay: MTT cancer cell cytotoxicity assay, A549; format: cell-based; settings: Homo sapiens, A549 cells, 48-72 h
Method: as §1, §2

SMILES	IC50 [1]	IC50 [2]	IC50 [3]	IC50 [4]
COc1ccccc1-c1nnc2ccc(-c3ccc(C)cc3F)cn12 [Example 4, 6-(2-Fluoro-4-methylphenyl)-3-(2-methoxyphenyl)-[1,2,4]triazolo[4,3-a]pyridine]	326 nM	246 nM	80 nM	276 nM
COc1ccc(-c2ccc3nnc(-c4ccccc4OC)n3c2)c(C)c1 [Example 8, 6-(4-Methoxy-2-methylphenyl)-3-(2-methoxyphenyl)-[1,2,4]triazolo[4,3-a]pyridine]	103 nM	55 nM	24 nM	91 nM
COc1cc(-c2ccc3nnc(-c4ccccc4OC)n3c2)ccc1OCc1ccccc1 [Example 9, 6-(4-Benzyloxy-3-methoxyphenyl)-3-(2-methoxyphenyl)-[1,2,4]triazolo[4,3-a]pyridine]	> 10000 nM	> 10000 nM	> 10000 nM	> 10000 nM
COc1ccccc1-c1nnc2ccc(-c3ccc(C)c([N+](=O)[O-])c3)cn12 [Example 10, 3-(2-Methoxyphenyl)-6-(4-methyl-3-nitrophenyl)-[1,2,4]triazolo[4,3-a]pyridine]	1370 nM	382 nM	618 nM	> 10000 nM
COc1ccccc1-c1nnc2ccc(-c3cccc(O)c3)cn12 [Example 12, 6-(3-Hydroxyphenyl)-3-(2-methoxyphenyl)-[1,2,4]triazolo[4,3-a]pyridine]	> 10000 nM	2950 nM	> 10000 nM	7180 nM
COc1ccccc1-c1nnc2ccc(-c3ccc(O)cc3)cn12 [Example 13, 6-(4-Hydroxyphenyl)-3-(2-methoxyphenyl)-[1,2,4]triazolo[4,3-a]pyridine]	660 nM	1280 nM	1010 nM	2350 nM
COc1ccccc1-c1nnc2ccc(-c3ccc4c(c3)OCO4)cn12 [Example 14, 6-(Benzo[d][1,3]dioxol-5-yl)-3-(2-methoxyphenyl)-[1,2,4]triazolo[4,3-a]pyridine]	1440 nM	797 nM	110 nM	1270 nM
COc1ccc(-c2ccc3nnc(-c4ccccc4OC)n3c2)cn1 [Example 15, 3-(2-Methoxyphenyl)-6-(6-methoxypyridin-3-yl)-[1,2,4]triazolo[4,3-a]pyridine]	2010 nM	1730 nM	1110 nM	1030 nM
CCOc1ccc(-c2ccc3nnc(-c4ccccc4OC)n3c2)cc1C [Example 16, 6-(4-Ethoxy-3-methylphenyl)-3-(2-methoxyphenyl)-[1,2,4]triazolo[4,3-a]pyridine]	152 nM	107 nM	33 nM	160 nM
COc1ncc(-c2ccc3nnc(-c4ccccc4OC)n3c2)cn1 [Example 18, 3-(2-Methoxyphenyl)-6-(2-methoxypyrimidin-5-yl)-[1,2,4]triazolo[4,3-a]pyridine]	> 10000 nM	> 10000 nM	> 10000 nM	> 10000 nM
COc1ccccc1-c1nnc2ccc(-c3ccc(C)c(Cl)c3)cn12 [Example 19, 6-(3-Chloro-4-methylphenyl)-3-(2-methoxyphenyl)-[1,2,4]triazolo[4,3-a]pyridine]	169 nM	157 nM	68 nM	221 nM
COc1ccccc1-c1nnc2ccc(-c3ccc([N+](=O)[O-])c(OC)c3)cn12 [Example 21, 6-(3-Methoxy-4-nitrophenyl)-3-(2-methoxyphenyl)-[1,2,4]triazolo[4,3-a]pyridine]	> 10000 nM	4250 nM	> 10000 nM	> 10000 nM
COc1ccccc1-c1nnc2ccc(-c3ccc(C)cc3)cn12 [Example 22, 3-(2-Methoxyphenyl)-6-(4-methylphenyl)-[1,2,4]triazolo[4,3-a]pyridine]	147 nM	224 nM	51 nM	192 nM
